According to ChEMBL document CHEMBL5674860, “Optimized Dual-Glo Assay to identify co-culture-induced drug vulnerabilities in 3D CRC models” (2024):

Tests used:
Type in all cases: functional, Homo sapiens
Set-up in all cases: dose or concentration left out as unconfirmed
Colon cancer organoid [1] = assay: Optimized Dual-Glo assay to identify co-culture induced drug vulnerabilities using donated chemical probes and chemogenomics kinase set in O06 CRC organoid and F06 CAF mono and co-culture. […] Cell viability is reported both mono and co-culture models.
Colon cancer organoid [2] = assay: Optimized Dual-Glo assay to identify co-culture induced drug vulnerabilities using donated chemical probes and chemogenomics kinase set in O20 CRC organoid and F20 CAF mono and co-culture. […] Cell viability is reported both mono and co-culture models.
Colon cancer organoid [3] = assay: Optimized Dual-Glo assay to identify co-culture induced drug vulnerabilities using donated chemical probes and chemogenomics kinase set in O14 CRC organoid and F14 CAF mono and co-culture. […] Cell viability is reported both mono and co-culture models.
[4] = Culture type Co-Culture, Transduced with Lucferase2-P2A-EGFP lentivirus
[5] = Culture type Co-Culture, Transduced with Renilla-dsRed lentivirus
[6] = Culture type Mono-Culture, Transduced with Lucferase2-P2A-EGFP lentivirus
[7] = Culture type Mono-Culture, Transduced with Renilla-dsRed lentivirus

CNC(=O)c1cc(C(=O)N[C@H]2[C@@H]3COC[C@@H]32)cc2c1O[C@@H](CF)[C@@H]2c1ccccc1 [GSK943]
Cell Viability (Colon cancer organoid [1]; [4]): 83.6271%
Cell Viability (Colon cancer organoid [1]; [5]): 130.888%
Cell Viability (Colon cancer organoid [1]; [6]): 89.2117%
Cell Viability (Colon cancer organoid [1]; [7]): 119.155%
Cell Viability (Colon cancer organoid [2]; [4]): 106.252%
Cell Viability (Colon cancer organoid [2]; [5]): 108.354%
Cell Viability (Colon cancer organoid [2]; [6]): 98.6986%
Cell Viability (Colon cancer organoid [2]; [7]): 128.773%
Cell Viability (Colon cancer organoid [3]; [4]): 119.043%
Cell Viability (Colon cancer organoid [3]; [5]): 94.0726%
Cell Viability (Colon cancer organoid [3]; [6]): 104.923%
Cell Viability (Colon cancer organoid [3]; [7]): 119.987%

CCN(CC)S(=O)(=O)Nc1cccc(-c2ccc3c(NC(=O)C4CC4)n[nH]c3c2)c1
Cell Viability (Colon cancer organoid [1]; [4]): 95.7035%
Cell Viability (Colon cancer organoid [1]; [5]): 91.2372%
Cell Viability (Colon cancer organoid [1]; [6]): 90.915%
Cell Viability (Colon cancer organoid [1]; [7]): 111.432%
Cell Viability (Colon cancer organoid [2]; [4]): 76.1767%
Cell Viability (Colon cancer organoid [2]; [5]): 136.148%
Cell Viability (Colon cancer organoid [2]; [6]): 110.502%
Cell Viability (Colon cancer organoid [2]; [7]): 120.639%
Cell Viability (Colon cancer organoid [3]; [4]): 132.967%
Cell Viability (Colon cancer organoid [3]; [5]): 105.386%
Cell Viability (Colon cancer organoid [3]; [6]): 144.3%
Cell Viability (Colon cancer organoid [3]; [7]): 103.503%

CNC(=O)c1cc(C(=O)NC2CC2)cn(Cc2ccccc2)c1=O [GSK620]
Cell Viability (Colon cancer organoid [1]; [4]): 111.223%
Cell Viability (Colon cancer organoid [1]; [5]): 132.009%
Cell Viability (Colon cancer organoid [1]; [6]): 81.6367%
Cell Viability (Colon cancer organoid [1]; [7]): 131.621%
Cell Viability (Colon cancer organoid [2]; [4]): 92.6025%
Cell Viability (Colon cancer organoid [2]; [5]): 100.747%
Cell Viability (Colon cancer organoid [2]; [6]): 72.9667%
Cell Viability (Colon cancer organoid [2]; [7]): 110.848%
Cell Viability (Colon cancer organoid [3]; [4]): 179.546%
Cell Viability (Colon cancer organoid [3]; [5]): 145.239%
Cell Viability (Colon cancer organoid [3]; [6]): 105.323%
Cell Viability (Colon cancer organoid [3]; [7]): 134%

CC[C@@H]1CN(C(=O)NCC(F)(F)F)C[C@@H]1c1cnc2cnc3[nH]ccc3n12 [UPADACITINIB]
Cell Viability (Colon cancer organoid [1]; [4]): 104.182%
Cell Viability (Colon cancer organoid [1]; [5]): 86.3482%
Cell Viability (Colon cancer organoid [1]; [6]): 126.811%
Cell Viability (Colon cancer organoid [1]; [7]): 90.1732%
Cell Viability (Colon cancer organoid [2]; [4]): 123.754%
Cell Viability (Colon cancer organoid [2]; [5]): 83.5298%
Cell Viability (Colon cancer organoid [2]; [6]): 89.3672%
Cell Viability (Colon cancer organoid [2]; [7]): 88.6624%
Cell Viability (Colon cancer organoid [3]; [4]): 168.996%
Cell Viability (Colon cancer organoid [3]; [5]): 89.117%
Cell Viability (Colon cancer organoid [3]; [6]): 123.387%
Cell Viability (Colon cancer organoid [3]; [7]): 83.332%

CC(C)(C)c1cc(NC(=O)Nc2ccc(-c3cn4c(n3)sc3cc(OCCN5CCOCC5)ccc34)cc2)no1 [QUIZARTINIB]
Cell Viability (Colon cancer organoid [1]; [4]): 26.1053%
Cell Viability (Colon cancer organoid [1]; [5]): 134.448%
Cell Viability (Colon cancer organoid [1]; [6]): 20.7828%
Cell Viability (Colon cancer organoid [1]; [7]): 88.706%
Cell Viability (Colon cancer organoid [2]; [4]): 58.7644%
Cell Viability (Colon cancer organoid [2]; [5]): 111.29%
Cell Viability (Colon cancer organoid [2]; [6]): 48.0043%
Cell Viability (Colon cancer organoid [2]; [7]): 98.7475%
Cell Viability (Colon cancer organoid [3]; [4]): 40.6861%
Cell Viability (Colon cancer organoid [3]; [5]): 210.95%
Cell Viability (Colon cancer organoid [3]; [6]): 46.4384%
Cell Viability (Colon cancer organoid [3]; [7]): 89.2922%

O=C(Nc1cnc(Oc2ccc(F)cc2)nc1)N1CCc2ncccc2[C@@H]1c1ccc(F)cc1 [BAY-899]
Cell Viability (Colon cancer organoid [1]; [4]): 92.2798%
Cell Viability (Colon cancer organoid [1]; [5]): 100.101%
Cell Viability (Colon cancer organoid [1]; [6]): 137.923%
Cell Viability (Colon cancer organoid [1]; [7]): 100.535%
Cell Viability (Colon cancer organoid [2]; [4]): 151.718%
Cell Viability (Colon cancer organoid [2]; [5]): 104.61%
Cell Viability (Colon cancer organoid [2]; [6]): 76.6403%
Cell Viability (Colon cancer organoid [2]; [7]): 85.9791%
Cell Viability (Colon cancer organoid [3]; [4]): 76.8335%
Cell Viability (Colon cancer organoid [3]; [5]): 114.239%
Cell Viability (Colon cancer organoid [3]; [6]): 91.8718%
Cell Viability (Colon cancer organoid [3]; [7]): 105.629%

Clc1cc2c(NC3CCCC3)nnc(-c3ccncc3)c2cc1Cl
Cell Viability (Colon cancer organoid [1]; [4]): 131.765%
Cell Viability (Colon cancer organoid [1]; [5]): 133.642%
Cell Viability (Colon cancer organoid [1]; [6]): 39.455%
Cell Viability (Colon cancer organoid [1]; [7]): 87.2375%
Cell Viability (Colon cancer organoid [2]; [4]): 149.301%
Cell Viability (Colon cancer organoid [2]; [5]): 128.6%
Cell Viability (Colon cancer organoid [2]; [6]): 80.485%
Cell Viability (Colon cancer organoid [2]; [7]): 77.3951%
Cell Viability (Colon cancer organoid [3]; [4]): 74.2058%
Cell Viability (Colon cancer organoid [3]; [5]): 99.3707%
Cell Viability (Colon cancer organoid [3]; [6]): 72.2513%
Cell Viability (Colon cancer organoid [3]; [7]): 106.405%
